In brackets after ≈: the same amount, converted by molar mass. Where two headings read alike, the source gives them in different places.
Key:
[1] = Cell viability assay (CellTiter-Glo, 7 days), HCT116 WT; format: cell-based; settings: human, HCT116 WT cells, 7 days of treatment, CTG
Method: Control compounds were analyzed in parallel each time for quality control. In Brief, on Day -1, a serial dilution of stock compounds in DMSO was performed using BioMek liquid handlers and dispensed using Echo acoustic dispenser into 384 well plates. Both tool compounds and sample compounds were spotted in the same plate for a dose response of PRMT5 inhibitors. Compound plates were stored as frozen until the cells were ready for seeding. […] After equilibrating the plate in room temperature, the cells were incubated for 7 days inside the sealed incubator set at 37° C. with 90% humidity and 5% CO2. On Day 7, the viability of cells was measured using a CTG assay kit (CellTitre-Glo;Promega cat no. G7573). Shortly, 40 μl per well of luminescent cell viability assay reagent were dispensed using EL460 liquid dispenser 5 μl cassette. CTG luminescence signal was measured using an EnVision plate reader (PerkinElmer) in accordance with manufacturer's instruction. […] Selectivity with * is artificially high due to limited solubility of the compound hampering accurate measurement of WT CC50.

[2] = PBS solubility (kinetic solubility from DMSO stocks); format: physicochemical; settings: 22 °C, aqueous buffer, kinetic from dmso stock; 1x PBS pH 7.4, 1.0% DMSO, 24-hour incubation at ambient temperature
Method: Buffer Preparation: 1×PBS, 7.4: Phosphate Buffered Saline solution 10×, PBS (Fisher Bioreagent, part number BP399-500) 50 mL was added to approximately 450 mL HPLC grade H2O. The volume of the solution was then adjusted to 500 mL for a total dilution factor of 1:10 and a final PBS concentration of 1×. The pH of the final solution was measured and found to be 7.4.
The final DMSO Concentration is 1.0% and maximum theoretical compound concentration is 100 μM (assuming stock concentration of 10 mM). The filter plate was sealed. Following 24-hour incubation at ambient temperature (20.8-24.0° C.), the samples were vacuum filtered, and the filtrates were collected in a 96 well polypropylene plate for analysis. The collection plate was sealed for analysis. Filtrates were injected into the nitrogen detector for quantification on Analiza's Automated Discovery Workstation. The results are reported here in both μM and μg/mL.
Calculation of Results: The equimolar nitrogen response of the detector is calibrated using standards which span the dynamic range of the instrument from 0.08 to 4500 μg/ml nitrogen. The filtrates were quantified with respect to this calibration curve. The calculated solubility values are corrected for background nitrogen present in the DMSO, and the media used to prepare the samples. All reported values for compounds containing adjacent nitrogen atoms in a ring structure should be increased by ˜25%. […] The solubility results presented assume that the samples were free of nitrogen containing impurities and are stable under the assay conditions.

[3] = MDR1/BCRP assay: permeability in cPgp-KO-MDCK-WT cells; format: in vitro ADME; settings: dog, pH 7.4
Method: The cells were maintained in an incubator at 37° C., 90% humidity, and 5% CO2 until reaching confluence over 5 days in 96-well transwell plates. Experiments were conducted using an HBSS donor buffer (Invitrogen) containing 10 mM HEPES and 15 mM glucose, adjusted to pH 7.4. The receiver well contained HBSS buffer supplemented with 1% BSA, 10 mM HEPES, and 15 mM glucose, and the pH was adjusted to 7.4. TEER values were measured to assess membrane integrity after an initial equilibration with BSA-free transport buffer for 15 minutes. The experiment was started by adding dosing solutions containing test compounds at 1 μM. Cells were dosed on the apical (A) side or basolateral (B) side at 100 μl and 200 μl, respectively, to determine forward (A to B) and reverse (B to A) permeability. At the 2-hour time point, 50 μl samples were collected from the receiver compartment. Each compound was tested in 2 separate replicate wells for each condition. All samples were immediately collected into plates, and 50 μL of acetonitrile was added. Subsequently, 350 μl of 30:70 methanol: acetonitrile containing internal standard was added to precipitate proteins and stabilize the test compounds. To test for non-specific binding and compound instability, the total amount of the drug was quantified at the end of the experiment and compared to the material present in the original dosing solution as a percentage of the recovery. All samples were analyzed by LC-MS/MS using electrospray ionization.
The apparent permeability, Papp, and % recovery were calculated as follows: […]

[4] = tested on: HCT116 MTAP-deleted cell lines; assay: Cell viability assay (CellTiter-Glo, 7 days), HCT116 MTAP-deleted; format: cell-based; settings: for Selectivity: HCT116 WT CC50 versus HCT116 MTAP^del CC50; for CC50: Homo sapiens, HCT116 MTAP-deleted; for plasma-adjusted CC50 (paCC50): paCC50 = CC50-HCT116-MTAP^del * (% free CCM/% free human plasma)
Summary of the method: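 CC50 values come from 7-day CellTiter-Glo viability measurements on cells exposed to a dose range of PRMT5 inhibitors dispensed from DMSO stocks.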

[5] = HCT-116, 168 h, 7 days of treatment, CTG, read-out: CC50-HCT116-MTAP^del
[6] = HCT-116, cell viability, class symbols, read-out: CC50
[7] = HCT-116, cell viability assay, class symbols, read-out: CC50

## Nc1nc2cnc(C(=O)N3C[C@H](F)CC4Oc5cc(C(F)(F)F)ccc5[C@@H]43)cc2n2cncc12 (mixture of isomers) [Ff-113, Rac-(4-aminoimidazo[1,5-a]pyrido[3,4-e]pyrazin-8-yl)((3R,4aS,9bS)-3-fluoro-7-(trifluoromethyl)-3,4,4a,9b-tetrahydrobenzofuro[3,2-b]pyridin-1(2H)-yl)methanone]
[1]
  CC50 at 7 days: 2570 nM
[2]
  solubility at 24 h: 1.1 µM (≈ 0.52 µg/mL)
[3]
  Papp A→B at 2 h, 1 µM: 12.3 ×10⁻⁶ cm/s
[4]
  Selectivity: 86
[4]; [5]
  CC50: 30 nM
[4]; [6]
  CC50: < 100 nM

## Nc1nc2cnc(C(=O)N3CC[C@H]4C[C@@H]3c3c(F)cc(OC(F)(F)F)cc3O4)cc2n2cncc12 (single isomer, unassigned) [Ff-692]
[1]
  CC50 at 7 days: 969 nM
[2]
  solubility at 24 h: 18.6 µM (≈ 9.08 µg/mL)
[4]
  Selectivity: 69
[4]; HCT-116
  plasma-adjusted CC50 (paCC50): 139 nM
[4]; [5]
  CC50: 14 nM

## Nc1nc2cnc(C(=O)N3CCC[C@@H]4Oc5cc(C(F)(F)F)c(F)cc5[C@@H]43)cc2n2cncc12 [Ff-115, (4-aminoimidazo[1,5-a]pyrido[3,4-e]pyrazin-8-yl)((4aS,9bS)-8-fluoro-7-(trifluoromethyl)-3,4,4a,9b-tetrahydrobenzofuro[3,2-b]pyridin-1(2H)-yl)methanone]
[1]
  CC50 at 7 days: 478 nM
[2]
  solubility at 24 h: < 1 µM
[3]
  Papp A→B at 2 h, 1 µM: 7.6 ×10⁻⁶ cm/s
[4]
  Selectivity: 48
[4]; HCT-116
  plasma-adjusted CC50 (paCC50): 202 nM
[4]; [5]
  CC50: 10 nM
[4]; [6]
  CC50: < 100 nM

## Nc1nc2cc(F)c(C(=O)N3CCO[C@@H]4Cc5cc(OC(F)F)c(F)cc5[C@@H]43)cc2n2cncc12 [Ff-174, (4-amino-7-fluoroimidazo[1,5-a]quinoxalin-8-yl)((4aS,9aR)-7-(difluoromethoxy)-6-fluoro-2,3,9,9a-tetrahydroindeno[2,1-b][1,4]oxazin-4(4aH)-yl)methanone]
[1]
  CC50 at 7 days: 2280 nM
[2]
  solubility at 24 h: < 1 µM
[3]
  Papp A→B at 2 h, 1 µM: 17.8 ×10⁻⁶ cm/s
[4]
  Selectivity: 63
[4]; [5]
  CC50: 36 nM
[4]; [6]
  CC50: < 100 nM

## C[C@@H]1C[C@@H]2Oc3cc(C(F)(F)F)ccc3[C@@H]2N(C(=O)c2cc3c(cn2)nc(N)c2cncn23)C1 [Ff-252, (4-aminoimidazo[1,5-a]pyrido[3,4-e]pyrazin-8-yl)((3R,4aS,9bS)-3-methyl-7-(trifluoromethyl)-3,4,4a,9b-tetrahydrobenzofuro[3,2-b]pyridin-1(2H)-yl)methanone]
[1]
  CC50 at 7 days: 534 nM
[2]
  solubility at 24 h: < 1 µM
[3]
  Papp A→B at 2 h, 1 µM: 13.6 ×10⁻⁶ cm/s
[4]
  Selectivity: 41
[4]; HCT-116
  plasma-adjusted CC50 (paCC50): 269 nM
[4]; [5]
  CC50: 13 nM
[4]; [6]
  CC50: < 100 nM

## Cc1ncc2c(N)nc3ccc(C(=O)N4CCC[C@@H]5Oc6cc(C(F)(F)F)ccc6[C@@H]54)cc3n12 [Ff-345, (4-amino-1-methylimidazo[1,5-a]quinoxalin-8-yl)((4aS,9bS)-7-(trifluoromethyl)-3,4,4a,9b-tetrahydrobenzofuro[3,2-b]pyridin-1(2H)-yl)methanone]
[1]
  CC50 at 7 days: 3620 nM
[2]
  solubility at 24 h: < 1 µM
[3]
  Papp A→B at 2 h, 1 µM: 10.2 ×10⁻⁶ cm/s
[4]
  Selectivity: 113
[4]; [5]
  CC50: 32 nM
[4]; [6]
  CC50: < 100 nM

## N#Cc1cc2nc(N)c3cncn3c2cc1C(=O)N1CCC[C@@H]2Oc3cc(C(F)(F)F)ccc3[C@@H]21 [Ff-346, 4-amino-8-((4aS,9bS)-7-(trifluoromethyl)-1,2,3,4,4a,9b-hexahydrobenzofuro[3,2-b]pyridine-1-carbonyl)imidazo[1,5-a]quinoxaline-7-carbonitrile]
[1]
  CC50 at 7 days: 305 nM
[2]
  solubility at 24 h: 4.2 µM (≈ 2.01 µg/mL)
[3]
  Papp A→B at 2 h, 1 µM: 10.8 ×10⁻⁶ cm/s
[4]
  Selectivity: 51
[4]; HCT-116
  plasma-adjusted CC50 (paCC50): 155 nM
[4]; [5]
  CC50: 6 nM
[4]; [6]
  CC50: < 100 nM

## Cc1ncc2c(N)nc3cc(F)c(C(=O)N4CCC[C@@H]5Oc6nc(C(F)(F)F)ccc6[C@@H]54)cc3n12 [Ff-363, (4-amino-7-fluoro-1-methylimidazo[1,5-a]quinoxalin-8-yl)((4aS,9bS)-7-(trifluoromethyl)-3,4,4a,9b-tetrahydrofuro[2,3-b:4,5-b′]dipyridin-1(2H)-yl)methanone]
[1]
  CC50 at 7 days: 2040 nM
[2]
  solubility at 24 h: 21.8 µM (≈ 10.6 µg/mL)
[3]
  Papp A→B at 2 h, 1 µM: 13.4 ×10⁻⁶ cm/s
[4]
  Selectivity: 127
[4]; HCT-116
  plasma-adjusted CC50 (paCC50): 196 nM
[4]; [5]
  CC50: 16 nM
[4]; [6]
  CC50: < 100 nM

## Cc1ncn2c1c(N)nc1cc(F)c(C(=O)N3CCC[C@@H]4Oc5cc(C(F)(F)F)ccc5[C@@H]43)cc12 [Ff-379, (4-amino-7-fluoro-3-methylimidazo[1,5-a]quinoxalin-8-yl)((4aS,9bS)-7-(trifluoromethyl)-3,4,4a,9b-tetrahydrobenzofuro[3,2-b]pyridin-1(2H)-yl)methanone]
[1]
  CC50 at 7 days: 730 nM
[2]
  solubility at 24 h: < 1 µM
[3]
  Papp A→B at 2 h, 1 µM: 10 ×10⁻⁶ cm/s
[4]
  Selectivity: 56
[4]; [5]
  CC50: 13 nM
[4]; [7]
  CC50: < 100 nM

## Cc1ncn2c1c(N)nc1cc(F)c(C(=O)N3CCCC[C@@H]3c3ccc(S(F)(F)(F)(F)F)cc3)cc12 [Ff-402, (R)-(4-amino-7-fluoro-3-methylimidazo[1,5-a]quinoxalin-8-yl)(2-(4-(pentafluoro-16-sulfaneyl)phenyl)piperidin-1-yl)methanone]
[1]
  CC50 at 7 days: 2520 nM
[2]
  solubility at 24 h: 18.3 µM (≈ 9.69 µg/mL)
[4]
  Selectivity: 84
[4]; HCT-116
  plasma-adjusted CC50 (paCC50): 40 nM
[4]; [5]
  CC50: 30 nM
[4]; [7]
  CC50: < 100 nM

## Nc1nc2cc(F)c(C(=O)N3CCC[C@@H]4Oc5ccc(C(F)(F)F)cc5[C@@H]43)cc2n2cncc12 [Ff-620, (4-amino-7-fluoroimidazo[1,5-a]quinoxalin-8-yl)((4aS,9bS)-8-(trifluoromethyl)-3,4,4a,9b-tetrahydrobenzofuro[3,2-b]pyridin-1(2H)-yl)methanone]
[1]
  CC50 at 7 days: 1550 nM
[2]
  solubility at 24 h: 1.2 µM (≈ 0.566 µg/mL)
[4]
  Selectivity: 50
[4]; [5]
  CC50: 31 nM
[4]; [7]
  CC50: < 100 nM

## Cc1ncc2c(N)nc3cnc(C(=O)N4CC[C@H]5C[C@@H]4c4ccc(OC(F)(F)F)cc4O5)cc3n12 [Ff-698, (4-amino-1-methylimidazo[1,5-a]pyrido[3,4-e]pyrazin-8-yl)((2S,6R)-9-(trifluoromethoxy)-3,4-dihydro-2H-2,6-methanobenzo[b][1,5]oxazocin-5(6H)-yl)methanone]
[1]
  CC50 at 7 days: 1440 nM
[2]
  solubility at 24 h: < 1 µM
[3]
  Papp A→B at 2 h, 1 µM: 11.4 ×10⁻⁶ cm/s
[4]
  Selectivity: 96
[4]; HCT-116
  plasma-adjusted CC50 (paCC50): 295 nM
[4]; [5]
  CC50: 15 nM

## Nc1nc2cc(F)c(C(=O)N3CCC[C@@H]4Oc5cc(OC(F)(F)F)cc(F)c5[C@@H]43)cc2n2cncc12 [Fg-68, (4-amino-7-fluoroimidazo[1,5-a]quinoxalin-8-yl)((4aS,9bS)-9-fluoro-7-(trifluoromethoxy)-3,4,4a,9b-tetrahydrobenzofuro[3,2-b]pyridin-1(2H)-yl)methanone]
[1]
  CC50 at 7 days: 708 nM
[2]
  solubility at 24 h: < 1 µM
[4]
  Selectivity: 89
[4]; HCT-116
  plasma-adjusted CC50 (paCC50): 130 nM
[4]; [5]
  CC50: 8 nM
